In US20230321265A1, “KAPPA OPIOID RECEPTOR AGONIST-THERAPEUTIC ANTIGEN BINDING PROTEIN CONJUGATE (KTAC) COMPOUNDS” (Cara Therapeutics, Inc., priority 2020, published 2023):
Marks after values point to notes of the source that are not given here.

Key:
[1] = system: LPS-Induced Cytokine Release; assay: LPS-induced cytokine release in mice (Luminex); assay type: in vivo, female Balb/c mice; conditions: 30 min before LPS 1 mg/kg IP, serum 2 hr post-LPS
Source text: Data were summarized as percent reduction from vehicle-treated controls (n = 8/group). (*p<0.05 vs. vehicle; unpaired t-test).

LPS-induced TNF release = assay: LPS-induced serum TNF-alpha in mice (ELISA); assay type: in vivo, female Balb/c mice; conditions: 3 and 10 mg/kg SC, 30 min before LPS 1 mg/kg IP, serum 2 hours post-LPS
Description: FIG. 5 Reduction in LPS-induced TNF release in Mice Pretreated with SC CR845 at 1, 3 and 10 mg/kg; and separately showing a comparison of the effect of prednisone as compared with vehicle alone.
Thirty minutes later, mice were injected IP with the bacterial lipopolysaccharide (LPS, 1 mg/kg) and serum samples collected 2 hours post-LPS treatment (n = 8/group). TNF-alpha levels in serum were determined by ELISA.

[2] = system: carrageenan-induced paw swelling; assay: Carrageenan-induced paw edema in rats; assay type: in vivo, male SD rats
Description: FIG. 6: Intravenous CR845 Produces Dose-Dependent Inhibition of Carrageenan-Induced Paw Edema Formation in Rats: Chart showing paw volume after administration of vehicle alone, or vehicle plus 0.1, 0.3 or 1.0 mg/kg CR845.
In a rat model of inflammatory disease, intraplantar injection of carrageenan in one hind paw is commonly used to produce acute inflammation, resulting in the swelling of the inoculated paw (Stein, Millan et al. 1988). Animals were administered CR845 IV (tail vein, 1 mL/kg) 30 min prior to intraplantar carrageenan administration (100 µL 2% carrageenan into left hind paw; n=6/group). Paw volumes were assessed 3.5 hr post treatment (i.e., 3 hr post-carrageenan injection).

[3] = system: human rheumatoid arthritis (RA) synoviocytes; assay: TNF-alpha release from human rheumatoid arthritis synoviocytes stimulated with interferon-gamma and anti-CD40 antibody; conditions: 48 hour period
Description: Concentrations of TNF-alpha are then measured in tissue culture supernatants by multiplex immunoassay.

[4] = system: Human monocyte-derived macrophages; assay: Cytokine release from LPS/IFN-γ stimulated human monocyte-derived macrophages (multiplex immunoassay); assay type: cell-based
Description: Human monocyte-derived macrophages were stimulated with lipopolysaccharide (LPS) and interferon gamma (IFN-γ) in the presence and absence of CR845 or interleukin-10 (IL-10; 10 ng/mL). Cytokine release in the 18-hour supernatants was measured by multiplex immunoassay (N=4 donors per condition, with assays run in triplicate), with results expressed as mean cytokine release (± SEM) following stimulation with LPS and IFN-γ. […] The minimum effective concentration was 2.0 nM, which was the lowest concentration tested (see Table 1).
Statistical comparisons: *, P<0.05; **, P<0.01; ***, P<0.001 compared with LPS/IFN-γ alone; ##, P<0.001 compared with LPS/IFN-γ + CR845 at 50 nM §, P<0.05 compared with LPS/IFN-γ + CR845 at 50 nM; ¶, P<0.005 compared with LPS/IFN-γ; ¶¶, P<0.001 compared with LPS/IFN-γ

[5] = LPS/IFNγ stimulated, CR845 50 nM, 18-hour supernatant, mean (SEM)
[6] = LPS/IFNγ stimulated, nor-BNI 10 nM alone, mean (SEM)

For `C[C@]12C=CC(=O)C=C1CC[C@@H]1[C@@H]2[C@@H](O)C[C@@]2(C)[C@H]1CC[C@]2(O)C(=O)CO` [Prednisolone, prednisolone], the “IL-1α % Inhibition” value ([1]; Prednisolone 3 mg/kg SC) was 50* %, the “IL-1β % Inhibition” value ([1]; Prednisolone 3 mg/kg SC) was 39* % and the “IL-2 % Inhibition” value ([1]; Prednisolone 3 mg/kg SC) was 24* %. The “IL-4 % Inhibition” value ([1]; Prednisolone 3 mg/kg SC) was 41* %, the “IL-6 % Inhibition” value ([1]; Prednisolone 3 mg/kg SC) was -2% and the “IL-10 % Inhibition” value ([1]; Prednisolone 3 mg/kg SC) was 59* %. The “IL-12 (p40/p70) % Inhibition” value ([1]; Prednisolone 3 mg/kg SC) was 45* %, the “MCP-1 % Inhibition” value ([1]; Prednisolone 3 mg/kg SC) was -14% and the “MIP-1α % Inhibition” value ([1]; Prednisolone 3 mg/kg SC) was 35* %. For the same compound, the “MIP-1β % Inhibition” value ([1]; Prednisolone 3 mg/kg SC) was 19* % and the “TNFα % Inhibition” value ([1]; Prednisolone 3 mg/kg SC) was 64* %.
With `CC(C)C[C@@H](NC(=O)[C@@H](Cc1ccccc1)NC(=O)[C@H](N)Cc1ccccc1)C(=O)N[C@H](CCCCN)C(=O)N1CCC(N)(C(=O)O)CC1` [CR845, D-Phe-D-Phe-D-Leu-D-Lys-[ω(4-aminopiperidine-4carboxylic acid)]-OH] the “serum TNF-alpha suppression” value (LPS-induced TNF release) was “dose-dependent suppression of TNF-alpha that is statistically significant”, the “minimum effective IV dose for reduction of carrageenan-induced paw swelling” value ([2]; IV 30 min prior to carrageenan, paw volume at 3.5 hr post-injection) was 0.3 mg/kg and the carrageenan-induced paw swelling ([2]; IV, 0.1, 0.3 or 1.0 mg/kg, vs. vehicle) was “significantly reduces carrageenan-induced paw swelling”. The “GM-CSF % Inhibition” value ([1]; CR845 10 mg/kg SC) was 7%, the “IL-1α % Inhibition” value ([1]; CR845 10 mg/kg SC) was -37% and the “IL-1β % Inhibition” value ([1]; CR845 10 mg/kg SC) was 26* %. For the same compound, the “IL-2 % Inhibition” value ([1]; CR845 10 mg/kg SC) was 23* %, the “IL-4 % Inhibition” value ([1]; CR845 10 mg/kg SC) was 21% and the “IL-6 % Inhibition” value ([1]; CR845 10 mg/kg SC) was -10%. The “IL-10 % Inhibition” value ([1]; CR845 10 mg/kg SC) was 26%, the “IL-12 (p40/p70) % Inhibition” value ([1]; CR845 10 mg/kg SC) was 23* % and the “MCP-1 % Inhibition” value ([1]; CR845 10 mg/kg SC) was -11%. For the same compound, the “MIP-1α % Inhibition” value ([1]; CR845 10 mg/kg SC) was 19%, the “MIP-1β % Inhibition” value ([1]; CR845 10 mg/kg SC) was 19* % and the “TNFα % Inhibition” value ([1]; CR845 10 mg/kg SC) was 47* %. The “TNF-alpha release (CD-40/interferon-gamma stimulated release standardized to 100)” value (shortened to “TNF-alpha release”) ([3]; 0.1 nM) was 20, the “TNF-alpha release” value ([3]; 0.3 nM) was -25 and the IL-6 release ([4]; LPS/IFNγ stimulated, CR845 10 nM, 18-hour supernatant, mean (SEM)) was 398.0 (108.4) pg/mL. For the same compound, the IL-6 release [4, 5] was 563.7 (53.9) pg/mL, the IL-8 release [4, 5] was 1211 (56.7) pg/mL and the “minimum effective concentration for reduction of cytokine secretion” value ([4]; lowest concentration tested) was 2.0 nM. For the same compound, the “secretion of TNF, IL-1β, IL-6, IL-8 and GCSF following stimulation with LPS and IFN-γ” value ([4]; primary human macrophages, vs. vehicle) was “significantly reduced”.
For `Oc1ccc2c3c1O[C@H]1c4[nH]c5c(c4C[C@@]4(O)[C@@H](C2)N(CC2CC2)CC[C@]314)C[C@@]1(O)[C@H]2Cc3ccc(O)c4c3[C@@]1(CCN2CC1CC1)[C@H]5O4` [nor-BNI], the G-CSF release [4, 6] was 1214 (29.9) pg/mL, the IL-1 release [4, 6] was 39.9 (1.1) pg/mL and the IL-6 release [4, 6] was 803.9 (0.6) pg/mL. The IL-8 release [4, 6] was 1595 (13.3) pg/mL, the TNF release [4, 6] was 7186 (174.8) pg/mL and the “effect of nor-BNI on the cytokine-reducing effect of CR845” value ([4]; selective kappa opioid antagonist added to CR845) was “blocked”.
For `CCCC1O[C@@H]2C[C@H]3[C@@H]4CCC5=CC(=O)C=C[C@]5(C)[C@H]4[C@@H](O)C[C@]3(C)[C@]2(C(=O)CO)O1` (stereo partly shown) [budesonide], the “TNF-alpha release” value ([3]; positive control, concentration not given) was -25.
